Assays:
Assay type in all cases: cell-based
[1] = biological target: T1, Ole1 (Saccharomyces cerevisiae, UniProt P21147); assay: Growth inhibition of yeast strain expressing Ole1 as sole desaturase; conditions: for IC50 / OLE1 % Max Inhibition: yeast strain expressing Ole1 as sole desaturase
T1 construct: expressed in transfected cells; host or cells: S. cerevisiae ole1Δ strain (W303 pdr1Δ pdr3Δ background), plasmid pRS316 with TDH3 promoter and CYC1 terminator
T1 sequence (P21147 1-510): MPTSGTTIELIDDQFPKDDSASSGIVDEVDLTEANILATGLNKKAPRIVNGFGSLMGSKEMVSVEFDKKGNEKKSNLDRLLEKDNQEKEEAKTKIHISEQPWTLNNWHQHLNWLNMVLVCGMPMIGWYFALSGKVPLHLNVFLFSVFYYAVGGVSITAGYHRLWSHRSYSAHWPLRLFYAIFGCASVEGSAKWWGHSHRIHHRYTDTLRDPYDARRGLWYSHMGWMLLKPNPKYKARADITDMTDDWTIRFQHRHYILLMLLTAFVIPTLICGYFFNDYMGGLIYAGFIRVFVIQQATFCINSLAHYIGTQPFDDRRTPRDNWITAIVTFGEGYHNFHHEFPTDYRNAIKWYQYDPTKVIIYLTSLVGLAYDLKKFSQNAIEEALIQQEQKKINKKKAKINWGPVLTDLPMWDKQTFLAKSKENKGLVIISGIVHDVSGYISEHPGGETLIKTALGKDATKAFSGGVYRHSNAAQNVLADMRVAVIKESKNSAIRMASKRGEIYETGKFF
Procedure, shortened: (§1)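 Plasmid-complemented ole1Δ yeast, drug-pump deleted (pdr1Δ pdr3Δ), depend solely on the introduced Ole1, SCD1 or SCD5 desaturase. Compounds are added from DMSO to cells in uracil-free galactose medium, 2× density 0.02, and OD600 is read after 24 h or 40 h respectively.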

[2] = biological target: T2, SCD5 (Homo sapiens, UniProt Q86SK9); assay: Growth inhibition of humanized yeast strain expressing SCD5 as sole desaturase; conditions: for IC50 / SCD5 % Max Inhibition: humanized yeast strain expressing SCD5
T2 construct: host or cells: S. cerevisiae ole1Δ strain (W303 pdr1Δ pdr3Δ background), plasmid pRS316 with TDH3 promoter and CYC1 terminator
T2 sequence (Q86SK9 1-330): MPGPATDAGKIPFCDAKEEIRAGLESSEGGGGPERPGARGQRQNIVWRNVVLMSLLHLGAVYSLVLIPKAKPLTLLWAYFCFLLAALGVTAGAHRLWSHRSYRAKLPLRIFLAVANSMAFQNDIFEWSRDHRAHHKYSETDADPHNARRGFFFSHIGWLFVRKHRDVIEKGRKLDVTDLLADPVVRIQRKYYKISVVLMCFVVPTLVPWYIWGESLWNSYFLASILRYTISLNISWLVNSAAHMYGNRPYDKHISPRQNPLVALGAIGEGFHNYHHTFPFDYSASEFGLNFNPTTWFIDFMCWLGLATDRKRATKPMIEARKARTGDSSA
Procedure, shortened: as §1

[3] = biological target: T3, SCD1 (Homo sapiens, UniProt O00767); assay: Growth inhibition of humanized yeast strain expressing SCD1 as sole desaturase; conditions: for IC50 / SCD1 % Max Inhibition: humanized yeast strain expressing SCD1
T3 construct: host or cells: S. cerevisiae ole1Δ strain (W303 pdr1Δ pdr3Δ background), plasmid pRS316 with TDH3 promoter and CYC1 terminator
T3 sequence (O00767 1-359): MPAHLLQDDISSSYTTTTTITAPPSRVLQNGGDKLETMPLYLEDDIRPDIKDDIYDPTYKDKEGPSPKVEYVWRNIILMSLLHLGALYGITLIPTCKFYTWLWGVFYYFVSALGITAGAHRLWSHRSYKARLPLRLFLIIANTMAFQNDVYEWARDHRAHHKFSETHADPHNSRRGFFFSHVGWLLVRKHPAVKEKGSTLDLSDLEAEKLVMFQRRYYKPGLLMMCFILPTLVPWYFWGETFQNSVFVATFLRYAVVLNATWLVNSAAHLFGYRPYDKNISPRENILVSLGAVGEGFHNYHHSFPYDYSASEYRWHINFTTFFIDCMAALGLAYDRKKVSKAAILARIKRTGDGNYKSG
Procedure, shortened: as §1

| Compound | IC50 [1] [µM] | OLE1 % Max Inhibition [1] [%] | IC50 [2] [µM] | SCD5 % Max Inhibition [2] [%] | IC50 [3] [µM] | SCD1 % Max Inhibition [3] [%] | growth of yeast expressing OLE1 in presence of inhibitor ([1]; FIG. 6) | half-maximal inhibitory concentration (IC50) ([2]; SCD5 humanized strain, FIG. 6) | half-maximal inhibitory concentration (IC50) ([3]; SCD1 humanized strain, FIG. 6) |
| --- | --- | --- | --- | --- | --- | --- | --- | --- | --- |
| Cc1nn(C)c2cc(-c3noc(C4CCN(C(=O)C5CC(=O)N(c6ccc(F)cc6)C5)CC4)n3)ccc12 (stereo not drawn) [Compound 188] | > 45 | 4.70 | > 45 | 4.51 | > 45 | 78.63 | – | – | – |
| Cc1nn(C)c2cc(-c3noc(C4CCN(C(=O)C5CC(=O)N(CC6COC6)C5)CC4)n3)ccc12 (stereo not drawn) [Compound 255] | > 45 | 96.25 | 30 | 64.50 | > 45 | 72.70 | – | – | – |
| Cn1c(=O)n(C)c2cc(-c3noc(C4CCN(C(=O)CNC(=O)c5ccccn5)CC4)n3)ccc21 [Compound 230] | > 45 | 2.63 | > 45 | 44.00 | > 45 | 78.48 | – | – | – |
| CCc1c2ccc(-c3noc(C4CCN(C(=O)CNC(=O)c5ccccc5)CC4)n3)cc2nn1C [Compound 321] | > 45 | 14.0 | > 45 | 74.1 | – | 71.6 | – | – | – |
| CCN(Cc1nc(-c2ccccc2)no1)C(=O)Cc1cccc2ccccc12 [Compound 156] | 37.1 | 63.63 | > 45 | 22.37 | > 45 | 72.58 | – | – | – |
| CC(C)(CO)n1cc2ccc(-c3noc(C4CCN(C(=O)CNC(=O)c5ccccc5)CC4)n3)cc2n1 [Compound 202] | > 45 | 94.93 | > 45 | 74.20 | > 45 | 74.09 | – | – | – |
| CC(C)n1ncc2ccc(-c3noc(C4CCN(C(=O)C5CC(=O)N(c6ccccc6)C5)CC4)n3)cc21 (stereo not drawn) [Compound 174] | > 45 | 89.17 | > 45 | 10.95 | > 45 | 79.07 | – | – | – |
| Cc1nn(C)c2cc(-c3noc(C4CCN(C(=O)N[C@@H]5C[C@@H]5c5ccccc5)CC4)n3)ccc12 [Compound 329] | > 45 | 12.5 | > 45 | 13.4 | – | 16.2 | – | – | – |
| CCOc1cnc(-c2noc(C3CCN(C(=O)CNC(=O)c4ccccc4)CC3)n2)nc1OC [Compound 166] | > 45 | 105.73 | > 45 | 68.87 | > 45 | 90.07 | – | – | – |
| N#CCC1CN(c2noc(C3CCN(C(=O)C4CC(=O)N(c5ccccc5)C4)CC3)n2)C1 (stereo not drawn) [Compound 242] | > 45 | 95.59 | > 45 | 79.22 | > 45 | 101.23 | – | – | – |
| COc1ccc(-c2noc(C3CCNCC3)n2)cc1OC [Compound 488] | > 45 | 90.53 | > 45 | 72.82 | – | 75.87 | – | – | – |
| Cn1c(=O)[nH]c2ccc(-c3noc(C4CCN(C(=O)CNC(=O)c5ccccc5)CC4)n3)cc21 [Compound 162] | > 45 | 100.35 | > 45 | 76.89 | > 45 | 84.54 | – | – | – |
| Cc1nn(C)c2cc(-c3noc(C4CCN(S(=O)(=O)C(C)C)CC4)n3)ccc12 [Compound 279] | > 45 | 83.07 | > 45 | 21.97 | – | 43.86 | – | – | – |
| CCOC(=O)C(C)(C)n1cc2ccc(-c3noc(C4CCN(C(=O)CNC(=O)c5ccccc5)CC4)n3)cc2n1 [Compound 194] | > 45 | 60.71 | > 45 | 63.24 | > 45 | 74.07 | – | – | – |
| Cc1nn(C)c2cc(-c3noc(N4CCN(C(=O)c5cc(F)ccc5C(F)(F)F)CC4)n3)ccc12 [Compound 293] | 34.9 | 66.4 | > 45 | 11.9 | > 45 | 12.3 | – | – | – |
| Cc1nn(C)c2cc(-c3noc(N4CCN(C(=O)c5ccccc5C(F)(F)F)CC4)n3)ccc12 [Compound 295] | > 45 | 18.4 | > 45 | 9.2 | – | 14.4 | – | – | – |
| Cc1nnc(-c2ccc(N3CCC(Oc4ccccc4C(F)(F)F)CC3)nn2)s1 [MF-438, reference compound] | – | – | – | – | – | – | resistant | low nanomolar | low nanomolar |
| O=C([C@H]1CC(=O)N(c2ccccc2)C1)N1CCC(c2nc(-c3ccc(Br)s3)no2)CC1 [Compound 248] | > 45 | 73.12 | > 45 | 13.59 | – | 3.09 | – | – | – |
| CCOc1ccc(-c2noc(C3CCN(C(=O)[C@H]4CCN(C(=O)c5ccccc5)C4)CC3)n2)cc1OC [Compound 234] | > 45 | 84.80 | > 45 | 76.83 | > 45 | 68.91 | – | – | – |
| CCOC(=O)C(C)(C)n1ncc2ccc(-c3noc(C4CCN(C(=O)C5CC(=O)N(c6ccccc6)C5)CC4)n3)cc21 (stereo not drawn) [Compound 196] | > 45 | 93.87 | > 45 | 75.88 | > 45 | 86.58 | – | – | – |

— patent US11873298B2, “Compounds and uses thereof” (JANSSEN PHARMACEUTICA NV, priority 2017, dated 2024)
